Patent US10314806B2 (SICHUAN JIUZHANG BIOLOGICAL SCIENCE AND TECHNOLOGY CO., LTD., priority 2014, dated 2019)

Legend:
Type in all cases: in vivo
Lewis lung cancer = assay: Inhibition of mice-transplanted tumor of Lewis lung cancer C57BL/6; details: 12 times
Procedure: Animal C57BL/6 mice, body weight 13˜20 g, half male and half female.
Cell Lines Lewis cells were mice lung cancer cells, and grew adhering to the wall in RPMI-1640 media containing 10% calf serum, 100 U·ml^−1 penicillin, 100 μg·ml^−1 streptomycin, and were cultured in an incubator at 37° C. under 5% CO2, followed by changing the medium and subculturing every two or three days.
(§1) Viable cells were counted by trypan blue staining. Cell suspension was subcutaneously inoculated at the left forelimb armpit of mice at 0.2 ml/animal (containing about 1×10^7 cells), and after tumor grew to 1 cm×1 cm×1 cm, mice were used in experiment. Mice tumors were aseptically stripped, and washed with Hank's solution thrice, to remove blood, fat and necrotic tissues. Tumors were cut to broken pieces of 1 mm×1 mm×1 mm, and washed with Hank's solution twice, to which physiological saline was added at a ratio of (1 g:3 ml), and then ground in a glass homogenizer and filtered by 80-100 mesh sieve to make a suspension of single cell. Viable cells were counted by trypan blue staining.
On the second day after inoculation, a dosage of 0.2 ml·10 g^−1 was administrated to each group by peritoneal injection (ip) for successive 12 times, once a day. When the tumor weight in negative control group was more than 1.0 g (tumor volume being about 0.5 cm^3), the experiment was stopped, and mice were sacrificed by cervical vertebrae removal and weighed. Tumors were stripped to calculate inhibitory rate.

EMT-6 breast cancer = assay: Inhibition of BABLc mice-transplanted tumor of EMT-6 breast cancer; details: 9 days
Procedure: (1) Animal BABLc mice, ♀, body weight 17˜21 g
Cell Lines EMT-6 cell lines were mice breast cancer cells, and grew adhering to the wall in RPMI-1640 complete media containing 10% calf serum, 1 mmol/L glutamine, 100 U·ml^−1 penicillin and 100 μg·ml^−1 streptomycin, and were cultured in an incubator at 37° C. under 5% CO2, followed by changing the medium and subculturing every two or three days.
as §1
On the second day after inoculation, a dosage of 0.2 ml·10 g^−1 was administrated to each group by intraperitoneal injection (ip) for successive 9 days, once a day. When the tumor weight in negative group was more than 1.0 g(tumor volume being about 0.5 cm^3), the experiment was stopped, and mice were sacrificed by cervical vertebrae removal and weighed. Tumors were stripped to calculate inhibitory rate.

human brain glioma = assay: Inhibition of mice-transplanted human brain glioma; details: 15 days, mice
Procedure: Human brain glioma cell lines were obtained from Key Laboratory of Transplant Engineering and Immunology, Ministry of health, West China Hospital, Sichuan University.
(1) Model establishment Mice were divided into groups, 10 mice for each group. The solution of brain glioblastoma cell lines was suitably diluted, and inoculated in cortex of left temporal lobe of mice, respectively.
Administration and intervention 24 h after inoculation, mice in each group were administrated by intraperitoneal injection. […] Each group was administrated for successive 15 days.
Determination of tumor inhibitory rate On the last day, the administration was stopped, and all mice were sacrificed and dissected. Tumor tissues were stripped and weighed. Tumor inhibitory rate %=(The mean tumor weight of control group−The mean tumor weight of drug groups)[The mean tumor weight of control group]×100%.
Statistical method The variance analysis of data was performed using the statistical program software package (SPSS13.0 for Windows), and p<0.05 was considered to be a statistically significant difference.

[1] = 1 mg·kg^−1 intraperitoneal injection
[2] = 5 mg·kg^−1 intraperitoneal injection
[3] = 30 mg·kg^−1 intraperitoneal injection
[4] = 40 mg·kg^−1 intraperitoneal injection
[5] = 70 mg·kg^−1 intraperitoneal injection
[6] = 80 mg·kg^−1 intraperitoneal injection
[7] = 90 mg·kg^−1 intraperitoneal injection
[8] = 100 mg·kg^−1 intraperitoneal injection

Q: Which results are given for `O=C(/C=C/c1ccc(O)c(O)c1)O[C@@H]1C[C@](O)(C(=O)O)C[C@@H](O)[C@H]1O` [Commercially available chlorogenic acid, chlorogenic acid, reference compound]?
A: Inhibitory rate (Lewis lung cancer; 1 mg·kg^−1 ip once a day): 3.2%; Tumor weight (Lewis lung cancer; 1 mg·kg^−1 ip once a day): 1.437 ± 0.466 g; Inhibitory rate (Lewis lung cancer; 5 mg·kg^−1 ip once a day): 6.6%; Tumor weight (Lewis lung cancer; 5 mg·kg^−1 ip once a day): 1.386 ± 0.398 g; Inhibitory rate (Lewis lung cancer; 10 mg·kg^−1 ip once a day): 23.5%; Inhibitory rate (Lewis lung cancer; 20 mg·kg^−1 ip once a day): 32.9%; Tumor weight (Lewis lung cancer; 20 mg·kg^−1 ip once a day): 0.996 ± 0.428 g; Inhibitory rate (Lewis lung cancer; 30 mg·kg^−1 ip once a day): 32.5%; Tumor weight (Lewis lung cancer; 30 mg·kg^−1 ip once a day): 1.001 ± 0.204 g; Inhibitory rate (Lewis lung cancer; 40 mg·kg^−1 ip once a day): 31.8%; Tumor weight (Lewis lung cancer; 40 mg·kg^−1 ip once a day): 1.012 ± 0.369 g; Inhibitory rate (Lewis lung cancer; 50 mg·kg^−1 ip once a day): 25.3%; Inhibitory rate (Lewis lung cancer; 60 mg·kg^−1 ip once a day): 21.6%; Inhibitory rate (Lewis lung cancer; 70 mg·kg^−1 ip once a day): 17.8%; Tumor weight (Lewis lung cancer; 70 mg·kg^−1 ip once a day): 1.220 ± 0.237 g; Inhibitory rate (Lewis lung cancer; 80 mg·kg^−1 ip once a day): 14.2%; Tumor weight (Lewis lung cancer; 80 mg·kg^−1 ip once a day): 1.273 ± 0.511 g; Inhibitory rate (Lewis lung cancer; 90 mg·kg^−1 ip once a day): 12.4%; Tumor weight (Lewis lung cancer; 90 mg·kg^−1 ip once a day): 1.300 ± 0.462 g; Inhibitory rate (Lewis lung cancer; 100 mg·kg^−1 ip once a day): 8.6%; Tumor weight (Lewis lung cancer; 100 mg·kg^−1 ip once a day): 1.356 ± 0.338 g; Inhibitory rate (EMT-6 breast cancer; 1 mg·kg^−1 ip once a day): 3.13%; Tumor weight (EMT-6 breast cancer; 1 mg·kg^−1 ip once a day): 1.299 ± 0.253 g; Inhibitory rate (EMT-6 breast cancer; 5 mg·kg^−1 ip once a day): 4.18%; Tumor weight (EMT-6 breast cancer; 5 mg·kg^−1 ip once a day): 1.285 ± 0.324 g; Inhibitory rate (EMT-6 breast cancer; 10 mg·kg^−1 ip once a day): 5.00%; Tumor weight (EMT-6 breast cancer; 10 mg·kg^−1 ip once a day): 1.274 ± 0.854 g; Inhibitory rate (EMT-6 breast cancer; 20 mg·kg^−1 ip once a day): 10.44%; Inhibitory rate (EMT-6 breast cancer; 30 mg·kg^−1 ip once a day): 11.63%; Inhibitory rate (EMT-6 breast cancer; 40 mg·kg^−1 ip once a day): 16.11%; Inhibitory rate (EMT-6 breast cancer; 50 mg·kg^−1 ip once a day): 16.85%; Inhibitory rate (EMT-6 breast cancer; 60 mg·kg^−1 ip once a day): 24.76%; Tumor weight (EMT-6 breast cancer; 60 mg·kg^−1 ip once a day): 1.009 ± 0.123 g; Inhibitory rate (EMT-6 breast cancer; 70 mg·kg^−1 ip once a day): 6.49%; Tumor weight (EMT-6 breast cancer; 70 mg·kg^−1 ip once a day): 1.254 ± 0.514 g; Inhibitory rate (EMT-6 breast cancer; 80 mg·kg^−1 ip once a day): 4.62%; Tumor weight (EMT-6 breast cancer; 80 mg·kg^−1 ip once a day): 1.279 ± 0143 g; Inhibitory rate (EMT-6 breast cancer; 90 mg·kg^−1 ip once a day): 3.21%; Tumor weight (EMT-6 breast cancer; 90 mg·kg^−1 ip once a day): 1.298 ± 0.423 g; Inhibitory rate (EMT-6 breast cancer; 100 mg·kg^−1 ip once a day): 2.16%; Tumor weight (EMT-6 breast cancer; 100 mg·kg^−1 ip once a day): 1.312 ± 0.087 g; Inhibitmy rate (human brain glioma; [1]): 9.10%; Tumor weight (human brain glioma; [1]): 1.319 ± 0.245 g; Inhibitmy rate (human brain glioma; [2]): 11.16%; Tumor weight (human brain glioma; [2]): 1.289 ± 0.289 g; Inhibitmy rate (human brain glioma; 10 mg·kg^−1 intraperitoneal injection): 19.09%; Inhibitmy rate (human brain glioma; 20 mg·kg^−1 intraperitoneal injection): 24.12%; Inhibitmy rate (human brain glioma; [3]): 30.74%; Tumor weight (human brain glioma; [3]): 1.005 ± 0.225 g; Inhibitmy rate (human brain glioma; [4]): 31.91%; Tumor weight (human brain glioma; [4]): 0.988 ± 0.025 g; Inhibitmy rate (human brain glioma; 50 mg·kg^−1 intraperitoneal injection): 23.85%; Inhibitmy rate (human brain glioma; 60 mg·kg^−1 intraperitoneal injection): 22.47%; Inhibitmy rate (human brain glioma; [5]): 15.58%; Tumor weight (human brain glioma; [5]): 1.225 ± 0.534 g; Inhibitmy rate (human brain glioma; [6]): 12.13%; Tumor weight (human brain glioma; [6]): 1.275 ± 0.043 g; Inhibitmy rate (human brain glioma; [7]): 11.30%; Tumor weight (human brain glioma; [7]): 1.287 ± 0.323 g; Inhibitmy rate (human brain glioma; [8]): 7.79%; Tumor weight (human brain glioma; [8]): 1.338 ± 0.187 g
